Assay results taken from PubChem BioAssay (NCI).
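Test compounds were applied to cells in 96-well plates for 48 hours at 5 doses. TGI denotes the concentration required for complete inhibition of growth.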

Legend:
Experiment in all cases: NCI-60 cell line screen, 48 h
T-47D breast = test system: T-47D breast
SK-MEL-5 melanoma = test system: SK-MEL-5 melanoma
HOP-92 NSCLC = test system: HOP-92 NSCLC
NCI-H226 lung = test system: NCI-H226 lung
OVCAR-3 ovarian = test system: OVCAR-3 ovarian
HL-60(TB) leukemia = test system: HL-60(TB) leukemia
HCC-2998 colon = test system: HCC-2998 colon
NCI/ADR-RES ovarian = test system: NCI/ADR-RES ovarian
SK-MEL-2 melanoma = test system: SK-MEL-2 melanoma
COLO 205 colon = test system: COLO 205 colon
NCI-H460 lung = test system: NCI-H460 lung
OVCAR-5 ovarian = test system: OVCAR-5 ovarian
MCF7 breast = test system: MCF7 breast
NCI-H23 lung = test system: NCI-H23 lung
HT29 colon = test system: HT29 colon
M14 melanoma = test system: M14 melanoma
HCT-15 colon = test system: HCT-15 colon
SK-OV-3 ovarian = test system: SK-OV-3 ovarian
DU-145 prostate = test system: DU-145 prostate
CCRF-CEM leukemia = test system: CCRF-CEM leukemia
CAKI-1 renal = test system: CAKI-1 renal
PC-3 prostate = test system: PC-3 prostate
LOX IMVI melanoma = test system: LOX IMVI melanoma
BT-549 breast = test system: BT-549 breast
SF-268 CNS = test system: SF-268 CNS
UO-31 renal = test system: UO-31 renal
A498 renal = test system: A498 renal
NCI-H522 lung = test system: NCI-H522 lung
UACC-257 melanoma = test system: UACC-257 melanoma
KM12 colon = test system: KM12 colon
RPMI-8226 leukemia = test system: RPMI-8226 leukemia
U251 CNS = test system: U251 CNS
SF-295 CNS = test system: SF-295 CNS
EKVX NSCLC = test system: EKVX NSCLC
OVCAR-4 ovarian = test system: OVCAR-4 ovarian
UACC-62 melanoma = test system: UACC-62 melanoma
OVCAR-8 ovarian = test system: OVCAR-8 ovarian
HOP-62 NSCLC = test system: HOP-62 NSCLC
RXF 393 renal = test system: RXF 393 renal
MDA-MB-435 = test system: MDA-MB-435
SN12C renal = test system: SN12C renal
ACHN renal = test system: ACHN renal
SK-MEL-28 melanoma = test system: SK-MEL-28 melanoma
SR leukemia = test system: SR leukemia
HS 578T breast = test system: HS 578T breast
MOLT-4 leukemia = test system: MOLT-4 leukemia
TK-10 renal = test system: TK-10 renal
SNB-19 CNS = test system: SNB-19 CNS
SNB-75 CNS = test system: SNB-75 CNS
MALME-3M melanoma = test system: MALME-3M melanoma
SW-620 colon = test system: SW-620 colon
IGROV1 ovarian = test system: IGROV1 ovarian
A549 NSCLC = test system: A549 NSCLC
786-0 renal = test system: 786-0 renal
HCT-116 colon = test system: HCT-116 colon
SF-539 CNS = test system: SF-539 CNS
K-562 leukemia = test system: K-562 leukemia

SMILES: CN(CCNC(=O)c1[nH]nc2c1ccc1ccccc12)CCNC(=O)c1[nH]nc2c1ccc1ccccc12
- TGI (T-47D breast): 5.03 µM
- TGI (SK-MEL-5 melanoma): 3.24 µM
- TGI (HOP-92 NSCLC): 18.5 µM
- TGI (NCI-H226 lung): 46.5 µM
- TGI (OVCAR-3 ovarian): 6.26 µM
- TGI (HL-60(TB) leukemia): 5.95 µM
- TGI (HCC-2998 colon): 3.61 µM
- TGI (NCI/ADR-RES ovarian): > 100 µM
- TGI (SK-MEL-2 melanoma): 37.9 µM
- TGI (COLO 205 colon): 2.74 µM
- TGI (NCI-H460 lung): 5.11 µM
- TGI (OVCAR-5 ovarian): 3.71 µM
- TGI (MCF7 breast): 3.29 µM
- TGI (NCI-H23 lung): 4.09 µM
- TGI (HT29 colon): 3.27 µM
- TGI (M14 melanoma): 3.49 µM
- TGI (HCT-15 colon): 46.7 µM
- TGI (SK-OV-3 ovarian): 30.1 µM
- TGI (DU-145 prostate): 10.2 µM
- TGI (CCRF-CEM leukemia): 5 µM
- TGI (CAKI-1 renal): > 76.2 µM
- TGI (PC-3 prostate): 6.8 µM
- TGI (LOX IMVI melanoma): 3.33 µM
- TGI (BT-549 breast): 53.2 µM
- TGI (SF-268 CNS): 4.84 µM
- TGI (UO-31 renal): 29.1 µM
- TGI (A498 renal): 67.7 µM
- TGI (NCI-H522 lung): 3.9 µM
- TGI (UACC-257 melanoma): 56.7 µM
- TGI (KM12 colon): 5.3 µM

SMILES: COc1ccc(NC(=S)NN=C(C)c2cccc(C(C)=NNC(=S)Nc3ccc(OC)cc3)n2)cc1
- TGI (RPMI-8226 leukemia): > 100 µM
- TGI (U251 CNS): > 100 µM
- TGI (SF-295 CNS): > 100 µM
- TGI (T-47D breast): > 100 µM
- TGI (SK-MEL-5 melanoma): > 100 µM
- TGI (EKVX NSCLC): > 100 µM
- TGI (OVCAR-4 ovarian): > 100 µM
- TGI (UACC-62 melanoma): > 100 µM
- TGI (HOP-92 NSCLC): > 100 µM
- TGI (OVCAR-8 ovarian): > 100 µM
- TGI (NCI-H226 lung): > 100 µM
- TGI (OVCAR-3 ovarian): > 100 µM
- TGI (HL-60(TB) leukemia): > 100 µM
- TGI (HOP-62 NSCLC): > 100 µM
- TGI (RXF 393 renal): > 100 µM
- TGI (MDA-MB-435): > 100 µM
- TGI (HCC-2998 colon): > 100 µM
- TGI (SN12C renal): > 100 µM
- TGI (NCI/ADR-RES ovarian): > 100 µM
- TGI (ACHN renal): > 100 µM
- TGI (SK-MEL-28 melanoma): > 100 µM
- TGI (SK-MEL-2 melanoma): > 100 µM
- TGI (COLO 205 colon): > 100 µM
- TGI (SR leukemia): > 100 µM
- TGI (HS 578T breast): > 100 µM
- TGI (NCI-H460 lung): > 100 µM
- TGI (MOLT-4 leukemia): > 100 µM
- TGI (OVCAR-5 ovarian): > 100 µM
- TGI (TK-10 renal): > 100 µM
- TGI (SNB-19 CNS): > 100 µM
- TGI (NCI-H23 lung): > 100 µM
- TGI (HT29 colon): > 100 µM
- TGI (M14 melanoma): > 100 µM
- TGI (HCT-15 colon): > 100 µM
- TGI (SNB-75 CNS): > 100 µM
- TGI (MALME-3M melanoma): > 100 µM
- TGI (SK-OV-3 ovarian): > 100 µM
- TGI (DU-145 prostate): > 100 µM
- TGI (CCRF-CEM leukemia): > 100 µM
- TGI (SW-620 colon): > 100 µM
- TGI (IGROV1 ovarian): > 100 µM
- TGI (CAKI-1 renal): > 100 µM
- TGI (A549 NSCLC): > 100 µM
- TGI (PC-3 prostate): > 100 µM
- TGI (LOX IMVI melanoma): > 100 µM
- TGI (SF-268 CNS): > 100 µM
- TGI (UO-31 renal): > 100 µM
- TGI (A498 renal): > 100 µM
- TGI (786-0 renal): > 100 µM
- TGI (HCT-116 colon): > 100 µM
- TGI (SF-539 CNS): > 100 µM
- TGI (NCI-H522 lung): > 100 µM
- TGI (UACC-257 melanoma): > 100 µM
- TGI (K-562 leukemia): > 100 µM
- TGI (KM12 colon): 84.2 µM
